Reference: US20090221576A1, “Pharmaceutical Use of 2-Hydroxy-3-[5-(Morpholin-4-Ylmethyl) Pyridin-2-YL]-1H-IN-Dole-5-Carbonitrile as a Free Base or Salts” (ASTRAZENECA AB GLOBAL INTELLECTUAL PROPERTY, priority 2006, published 2009)

Test system: Han Wistar rats
Experiment: Increased bone formation in rats, four-week oral gavage study, light microscopy of femur, femorotibial joint and sternum
Format: in vivo, rat
Method: Male and female Han Wistar rats were dosed by oral gavage, at dosages of 15, 55 or 100 μmol/kg/day for four weeks and compared to vehicle controls. Complete necropsies were performed and the tissues preserved in 10% formalin. The femur, femorotibial joint and sternum were decalcified, embedded in paraffin, sectioned at 5 μm thickness and stained with hematoxylin and eosin.

[1] = rat, 100 μmol/kg for 4 weeks, vs vehicle-treated control rat (FIG. 1a)

SMILES	bone formation as evaluated by light microscopy (male and female Han Wistar rats, oral gavage, 100 μmol/kg dose level, four weeks, vs vehicle controls, femur, femorotibial joint, sternum, H&E)	formation of osteoid in the femur (epiphysis), FIG. 1b [1]	number of osteoblasts in the femur (epiphysis), FIG. 1b [1]
N#Cc1ccc2[nH]c(O)c(-c3ccc(CN4CCOCC4)cn3)c2c1.O=C(O)CC(O)(CC(=O)O)C(=O)O [Example 1, 2-Hydroxy-3-[5-(morpholin-4-ylmethyl)pyridin-2-yl]1H-indole-5-carbonitrile citrate salt]	increased bone formation in the form of thickened trabeculae, thickened cortical bone, periosteal hyperostosis and increased number of osteoblasts	–	–
N#Cc1ccc2[nH]c(O)c(-c3ccc(CN4CCOCC4)cn3)c2c1 [compound (I), 2-hydroxy-3-[5-(morpholin-4-ylmethyl)pyridin-2-yl]1H-indole-5-carbonitrile]	–	marked increase in formation of osteoid	increased number of osteoblasts
